Data reported in ChEMBL document CHEMBL4265991.
Active and inactive are the calls of the source. The calls are words filed in the database; no cut-off is given here.

Key:
[1] = biological target: Inosine-5'-monophosphate dehydrogenase (Cryptococcus neoformans var. neoformans serotype D (strain JEC21 /ATCC MYA-565) (Filobasidiella neoformans)) (UniProt Q5KP44); experiment: Inhibition of recombinant Cryptococcus neoformans His-tagged IMPDH expressed in Escherichia coli BL21 (DE3) using IMP as substrate and DTT containing buffer in presence of NAD
[2] = Selectivity index, ratio of IC50 for recombinant human His-tagged IMPDH2 to IC50 for recombinant Cryptococcus neoformans His-tagged IMPDH
[3] = Selectivity index, ratio of IC50 for recombinant human His-tagged IMPDH1 to IC50 for recombinant Cryptococcus neoformans His-tagged IMPDH

Chain of Inosine-5'-monophosphate dehydrogenase (Cryptococcus neoformans var. neoformans serotype D (strain JEC21 /ATCC MYA-565) (Filobasidiella neoformans)) (Q5KP44 whole entry, looked up): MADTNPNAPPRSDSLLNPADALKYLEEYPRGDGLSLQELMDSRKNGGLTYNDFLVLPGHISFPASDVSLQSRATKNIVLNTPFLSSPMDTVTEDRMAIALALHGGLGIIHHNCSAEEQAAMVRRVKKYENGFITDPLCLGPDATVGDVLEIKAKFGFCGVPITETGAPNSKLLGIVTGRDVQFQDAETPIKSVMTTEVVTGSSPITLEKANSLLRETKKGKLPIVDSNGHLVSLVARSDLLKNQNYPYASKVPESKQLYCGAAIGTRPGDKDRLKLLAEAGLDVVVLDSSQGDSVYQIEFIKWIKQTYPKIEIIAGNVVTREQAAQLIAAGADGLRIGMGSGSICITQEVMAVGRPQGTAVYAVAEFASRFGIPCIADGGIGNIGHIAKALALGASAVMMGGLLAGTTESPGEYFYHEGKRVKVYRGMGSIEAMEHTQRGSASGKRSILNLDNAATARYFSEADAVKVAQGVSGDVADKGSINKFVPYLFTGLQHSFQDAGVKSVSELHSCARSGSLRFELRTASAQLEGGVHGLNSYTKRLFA

O=S1(=O)C=C(Sc2nnc(-c3ccccc3)o2)c2ccccc21
inhibition [1]: inactive

COC(=O)c1ccc(-c2nnc(SC3=CS(=O)(=O)c4ccccc43)o2)cc1
Ratio IC50 [2]: > 30 | Ratio IC50 [3]: > 30

COc1ccccc1-c1nnc(SC2=CS(=O)(=O)c3ccccc32)o1
inhibition [1]: inactive

COc1ccc(-c2nnc(SC3=CS(=O)(=O)c4ccccc43)o2)cc1
Ratio IC50 [2]: > 30 | Ratio IC50 [3]: > 30
